{"source": "patent US8906425B2", "about": "“Stimulation of the synthesis of the activity of an isoform of lysyl oxidase-like LOXL for stimulating the formation of elastic fibers” (BASF Beauty Care Solutions France S.A.S., priority 2003, dated 2014)", "molecules": {"B1": {"name": "IL-1 alpha: cytokine used as positive control at 50 pg/ml (protein, UniProt P01583 113-271, looked up)", "Interleukin-1 alpha": "SAPFSFLSNVKYNFMRIIKYEFILNDALNQSIIRANDQYLTAAALHNLDEAVKFDMGAYKSSKDDAKITVILRISKTQLYVTAQDEDQPVLLKEMPEIPKTITGSETNLLFFWETHGTKNYFTSVAHPNLFIATKQDYWVCLAGGPPSITDFQILENQA"}}, "key": {"LOXL mRNA": {"test_system": "LOXL mRNA", "assay": "Real time RT-PCR effectiveness study, LOXL mRNA", "format": "cell-based, human", "conditions": "24 hours, adult fibroblasts (donor)", "method": "(§1) […] The culture was carried out e.g. in monolayer in 24-well plates, in a defined medium without serum. (Fibroblast Basal Medium). The cells are sown e.g. at 40,000 per cm^2. After the time of placing the actives in contact with the cells (24 hours), the media were removed and the cells were preserved e.g. by dry freezing at −80° C. after a rinsing with phosphate buffer at pH 7.4. At the end of experimentation, the content of mRNA of elastin, of LOXL and of actin is evaluated by an mRNA analysis technique, e.g. by real time RT-PCR. For this, the couples of primers enabling the amplification of specific fragments of these genes are those described above (Example 10).\n(§2) After extraction e.g. with the aid of an extraction kit in 96-wells on silica columns and determination on a 96-well spectrophotometer at 260 nm, the RNAs are diluted e.g. to 5 ng/μl. The RT-PCR reactions (Reverse Polymerase Transcription Chain Reactions) were carried out by quantitative real time RT-PCR with the aid of the “Opticon” system (MJ Research). Advantageously, the reaction mixture (50 μl) introduced into the wells was the following, for each sample: • 10 μl of RNA at a concentration of 5 ng/μl, • The specific primers of the various labels sought after, • Reaction mixture (Qiagen 25 μl 2xQuantiTect SYBR Green RT-PCR master mix containing 5 mM MgCl2+0.5 μl QuantiTect RT mix), the label SYBR Green I inserting in the DNA double strands during the elongation step. […] Analysis and Method of Calculation: The incorporation of fluorescence in the amplified DNA was evaluated continuously during the PCR cycles. This system enabled obtaining curves of fluorescence measurement as a function of the number of PCR cycles and thus enabled evaluating a relative amount of amplified DNA. […] According to the experimentation, the threshold of measurement of the C (T) (=Cycle Threshold) was fixed for T between 0.05 and 0.01, and then an arbitrary measurement unit is calculated for each gene according to the formula: Sgene ? x ? =10^7×(½)^C(T)gene ? ^x ? […]"}, "LOX mRNA": {"test_system": "LOX mRNA", "assay": "Real time RT-PCR effectiveness study, LOX mRNA", "format": "cell-based, human", "conditions": "active at 5%, 24 hours, adult fibroblasts (donor)"}, "elastin mRNA [1]": {"test_system": "elastin mRNA", "assay": "Real time RT-PCR effectiveness study, elastin mRNA", "format": "cell-based, human", "conditions": "24 hours, adult fibroblasts (donor)", "method": "as §1, §2"}, "elastin mRNA [2]": {"test_system": "elastin mRNA", "assay": "Positive controls: stimulation of elastin mRNA synthesis by quantitative RT-PCR", "format": "cell-based", "conditions": "fibroblasts of normal human skin", "method": "(§3) The active principles were tested at 1% (v/v) on fibroblasts of normal human skin (originating from the foreskin of the infant or originating from the adult). The culture was carried out, e.g. in a monolayer on 24-well culture plates, in a defined medium without serum (Fibroblast Basal Medium). The cells were sown, e.g. at 40,000 per cm^2. At the confluence, the cells are placed in contact with the actives advantageously for 24 hours. In parallel, a non-treated control (medium alone) and three positive controls (TGF-β at 1 ng/ml, IL-1α at 50 pg/ml and Phytokine® (Coletica, Lyons, France) at 2% (v/v)) are advantageously carried out, e.g. on the same culture plate. The TGF-β at 1 ng/ml and the IL-1α at 50 pg/ml were tested beforehand and the stimulation of the synthesis of elastin mRNA induced by these two cytokines at these concentrations was verified by an analysis of the mRNAs, e.g. by quantitative RT-PCR (×10 for TGF-β and ×6 for IL-1 alpha). After the time of placing the actives in contact with the cells, e.g. 24 hours, the media are removed and the cells are preserved e.g. by dry freezing at −80° C. after a rinsing in phosphate buffer pH 7.4. The total RNAs are extracted e.g. with the aid of an extraction kit of 96 wells on silica columns and were determined on a 96-well spectrophotometer at 260 nm (purity indicator: protein determination at 280 nm). […]"}, "elastin (Eln) mRNA": {"test_system": "elastin (Eln) mRNA", "assay": "Screening of active principles by qualitative RT-PCR, elastin mRNA", "format": "cell-based, human", "conditions": "actives at 1% (v/v), 24 hours, adult abdomen fibroblasts (donor), mRNA vs actin and non-treated control", "method": "as §3"}}, "note": "Marks after values point to notes of the source that are not given here.", "data": [{"molecule": "CCCC(=O)OC", "note": "[methyl butyrate]", "values": [{"measurement": "LOXL Control multiplied by:", "setting": "LOXL mRNA; active at 0.01%", "value": 0.89}, {"measurement": "LOXL Control multiplied by:", "setting": "LOXL mRNA; active at 1%", "value": "2.10*"}, {"measurement": "LOXL Control multiplied by:", "setting": "LOXL mRNA; active at 5%", "value": 0.91}, {"measurement": "LOX Control multiplied by:", "setting": "LOX mRNA", "value": 0.91}, {"measurement": "El Control multiplied by:", "setting": "elastin mRNA [1]; active at 0.01%", "value": 0.92}, {"measurement": "El Control multiplied by:", "setting": "elastin mRNA [1]; active at 0.1%", "value": 0.96}, {"measurement": "El Control multiplied by:", "setting": "elastin mRNA [1]; active at 5%", "value": "1.70*"}]}, {"molecule": "TGF-β [reference compound]", "values": [{"measurement": "stimulation of the synthesis of elastin mRNA (×)", "setting": "elastin mRNA [2]; TGF-β at 1 ng/ml", "value": 10}]}, {"molecule": "ethyl hexenoate", "values": [{"measurement": "Eln Control multiplied by:", "setting": "elastin (Eln) mRNA", "value": 1.5}]}, {"molecule": "B1", "values": [{"measurement": "stimulation of the synthesis of elastin mRNA (×)", "setting": "elastin mRNA [2]; IL-1α at 50 pg/ml", "value": 6}]}]}
